# Assay results reported in patent US8512958B2, “Methods of identifying agents that modulate mitochondrial function” (The J. David Gladstone Institutes, priority 2005, dated 2013).
# “Also recorded” adds a separate entry of the source.
# How the values were obtained:
# [1] = system: differentiated PC12 cells; assay: Time-lapse recording of mitochondrial motility and morphology in neurites of differentiated PC12 cells (exogenous agents); settings: for mitochondrial motility, increase: nimodipine 5 μM together with AP5 50 μM, with or without apoE forms
# Neuro-2a cells = assay: MTT cell survival assay of Neuro-2a cells transiently transfected with apoE4 cDNA constructs; assay type: cell-based, mouse; settings: expressed in Neuro-2a cells, MTT assay 48 h after transfection
# Procedure: Cell Culture and Transfection. […] ApoE4 expression levels were determined by anti-apoE western blotting of cell lysates and media. […] Thus, the results are not due to overexpression.
# Cell Survival. […] Cell survival was estimated with an MTT colorimetric assay (52) 48 h after transfection.
# [2] = system: rat primary hippocampal neurons; assay: Dendritic spine density (EGFP-β-actin, confocal microscopy) in primary hippocampal neurons; assay type: cell-based; settings: apoE 7.5 μg/ml, 24 h
# Procedure: (§1) Cortices or hippocampi from neonatal rat pups were dissected and treated with papain (10 units ml^−1, 30 min; Worthington Biochemical, Lakewood, N.J.) and the with trypsin inhibitor (10 mg ml^−1, 15 min). Dissociated neurons were plated on 12-mm glass coverslips (Fisher Scientific, Hampton, N.H.) (8×10^5 cells per cm^2) coated with poly-L-lysine. After 2 h, cells were transferred into Neurobasal medium supplemented with B27, 1 mM L-glutamine, and 100 μg/ml penicillin/streptomycin (Invitrogen). Neurons were routinely transfected after 10 days in culture and used for experiments 5-7 days after transfection. Cells were maintained in a humidified incubator with 5% CO2 at 37° C.
# (§2) Confocal Microscopy. Cultured primary neurons treated with various forms of apoE were fixed for 20 min in ice-cold 4% paraformaldehyde in PBS and mounted with Vectashield (Vector Laboratories Burlingame, Calif.). Digital images of EGFP and dsRed fluorescence in primary neurons were collected on a laser-scanning confocal microscope with a Bio-Rad Radiance 2000 scanhead (Bio-Rad, Hercules, Calif.) mounted on a BX60 microscope (Olympus, Melville, N.Y.) with a 60× oil objective.
# To assess the effect of exogenous apoE on dendritic spine density, rat primary cortical and hippocampal neurons, which had been cultured for 14-17 days in vitro, were incubated with different forms of apoE (7.5 μg/ml) for 24 h. […]
# [3] = system: rat primary cortical neurons; assay: Dendritic spine density (EGFP-β-actin, confocal microscopy) in primary cortical neurons; assay type: cell-based
# Procedure: as §1
# Neuronal activation and inhibition.
# as §2
# To assess the effect of exogenous apoE on dendritic spine density, rat primary cortical and hippocampal neurons, which had been cultured for 14-17 days in vitro, were incubated with different forms of apoE (7.5 μg/ml) for 24 h. Four to six days before the experiment, the cells were transfected with EGFP-tagged β-actin (EGFP-β-actin), a cytoskeletal protein that is abundant in dendritic spines. […] Other measures of neuronal complexity (e.g., dendritic field and length of dendritic extensions) were not affected by any form of apoE. […] FIGS. 12A and 12B. […] (a) Confocal micrographs of synaptic EGFP-β-actin fluorescence in dendrites of rat primary cortical and hippocampal neurons (16 days in vitro) incubated for 24 h with or without (control) various forms of apoE (7.5 μg/ml). Scale bar=5 μm. (b) Number of spines per μm of dendritic extension. […]
# [4] = system: dendrites of primary cortical neurons; assay: Number, size and occupancy of mitochondria in dendrites of primary cortical neurons; assay type: cell-based, rat; settings: primary neurons treated with apoE
# [5] = repetitive depolarization with KCl 90 mM, 4×3 min
# [6] = cortical neurons, apoE 7.5 μg/ml, 24 h
molecule,measurement,setting,value
[Cl-].[K+] [KCl],average moving velocity (moving distance/15 min) in the anterograde direction,[1]; [5],drastically reduced
same,mitochondrial moving velocity (moving distance/time moving),[1]; [5],unaltered; also recorded: did not affect
same,net moving distance in the anterograde direction,[1]; [5],drastically reduced
same,retrograde motility (toward the soma),[1]; [5],No significant changes
same,"mitochondrial index, reduced","[1]; repetitive depolarizations with KCl (4×, 90 mM)",22.5%
COCCOC(=O)C1=C(C)NC(C)=C(C(=O)OC(C)C)C1c1cccc([N+](=O)[O-])c1 (centres unmarked) [nimodipine],"mitochondrial motility, increase",[1]; 24 h,about 30%
Q284A: full-length WT apoE4 with single mutation Q284A,neurotoxicity,Neuro-2a cells,as neurotoxic as apoE4(1-272)
L279Q: full-length WT apoE4 with single mutation L279Q,neurotoxicity,Neuro-2a cells,as neurotoxic as apoE4(1-272)
"NC(CCCP(=O)(O)O)C(=O)O (centres unmarked) [AP5, 2-amino-5-phosphonovalerate]","mitochondrial motility, increase",[1]; 24 h,about 30%
"NC1=N[C@H](O)[C@H]2[C@H]3O[C@]4(O)O[C@@H]([C@@H](O)[C@@]2(N1)[C@@H]4O)[C@]3(O)CO [TTX, tetrodotoxin]",mitochondrial dynamics,[1],increased
same,mitochondrial index,[1],without affecting; also recorded: not affected
"apoE4: Human apolipoprotein E4 isoform, 299 amino acids (SEQ ID NO:1); recombinant or expressed","density of dendritic spines, decrease compared with controls",[2],19±5%
same,"density of dendritic spines, reduction compared with apoE3",[2],28±4%
same,"extent of the mitochondrial motility response to neuronal activation, reduced to","[1]; apoE 7.5 μg/ml 24 h, then repetitive depolarizations with KCl",30%
same,average mitochondrial length,"[1]; exogenous apoE 7.5 μg/ml, 24 h",significantly reduced
same,retrograde velocity / retrograde direction motility,"[1]; exogenous apoE 7.5 μg/ml, 24 h",unaffected
same,"density of dendritic spines, decrease compared with controls",[3]; [6],13±5%
same,"density of dendritic spines, reduction compared with apoE3",[3]; [6],27±5%
same,"spinal density in response to neuronal activation, reduced as compared to controls","[3]; primary cortical neurons, apoE 7.5 μg/ml 24 h, repetitive KCl depolarization",48±11%
same,number of mitochondria at dendritic spines compared with apoE3-treated cells or controls,[4],many fewer
